Experimental findings from patent US20260231994A1, “TASTE-ENHANCING COMPOSITION, METHOD FOR PRODUCING SAME, FOOD PRODUCT, AND METHOD FOR ENHANCING TASTE OF FOOD PRODUCT” (HOUSE FOODS GROUP INC., priority 2023, published 2026) are described below.

Holding throughout (format): in vivo
Test [1] can be described thus: Experiment 6 sensory evaluation of cyclic dipeptides, “top sharp saltiness”. On the procedure:
(§1) An aqueous solution in which the concentration of each of the cyclic dipeptides shown in the table described below is set to be the same as its concentration in the heat-treated coriander prepared in 1.1. described above, as estimated from the ratio of the peak area of the cyclic dipeptides to the peak area of the internal standard (47 μg/g of L-lysine-^13C6 monohydrochloride) (hereinafter referred to as “heat-treated coriander equivalent aqueous solution”) was prepared. An aqueous solution in which the concentration of each of the cyclic dipeptides is set to be the same as its concentration in the heat-treated paprika of Example 203 prepared in 2.1 described above (hereinafter referred to as “heat-treated paprika equivalent aqueous solution”) was also prepared. Cyclic dipeptides prepared by the applicant were used in this experiment. As a cyclic dipeptide comprising Leu/Ile, a mixture comprising equal parts of cyclic dipeptide comprising Leu and cyclic dipeptide comprising Ile was used.
(§2) Common and reduced-sodium curry rouxes were prepared according to the procedures described in (1) and (2) of 1.3. described above.
(§3) Two dispersions of 44 g of the aforesaid reduced-sodium curry roux dispersed in 300 g of hot water were prepared. To one of them was added the heat-treated coriander equivalent solution or heat-treated paprika equivalent aqueous solution of the individual cyclic dipeptides shown in the table described below so as to be in the final concentration of 0.5% (w/w) or 1.0% (w/w), respectively.
(§4) Forty-four grams of the aforesaid common curry roux was dispersed in 300 g of hot water.
(§5) The dispersion of reduced-sodium curry roux dispersed in hot water and the dispersion of common curry roux dispersed in hot water were used as comparative controls, and the strength of the flavor was evaluated by three evaluators on the basis of the following evaluation criteria from the viewpoint of “top sharp saltiness”, “middle fullness (enhanced thickness) and “boosting of last flavor (aftertaste).”
(§6) The average of the evaluated scores was defined as “F” when it was 1.0 or lower, “C” when it was 1.1 or higher and 1.9 or lower, “B” when it was 2.0 or higher and 2.5 or lower, “A” when it was 2.6 or higher and 2.9 or lower, and “AA” when it was 3.0 or higher.
(§7) In the table described below, “ID” refers to the compound ID described above. The items of “coriander 0.5%” and “coriander 1.0%” refer to the addition of the aforesaid heat-treated coriander equivalent aqueous solution of cyclic dipeptide so that the final concentrations may be 0.5% (w/w) and 1.0% (w/w), respectively. The items of “paprika 0.5%” and “paprika 1.0%” refer to the addition of the aforesaid heat-treated paprika equivalent aqueous solution of cyclic dipeptide so that the final concentration may be 0.5% (w/w) and 1.0% (w/w), respectively.

Test [2] is described as follows: Experiment 6 sensory evaluation of cyclic dipeptides, “middle fullness (enhanced thickness)”. On the procedure:
as §1, §2, §3, §4, §5, §6, §7

Test [3] in a line: Experiment 6 sensory evaluation of cyclic dipeptides, “boosting of last flavor (aftertaste)”. On the procedure: as §1, §2, §3, §4, §5, §6, §7
Setting [4] is: Additive amount coriander 0.5% (heat-treated coriander equivalent aqueous solution, final 0.5% (w/w)), reduced-sodium curry roux.
[5] abbreviates: Additive amount coriander 0.5%, reduced-sodium curry roux.
The mark [6] stands for this setting: heat-treated coriander equivalent aqueous solution of cyclic dipeptide, final 1.0% (w/w) in reduced-sodium curry roux dispersion.
Where [7] appears, read: heat-treated coriander equivalent aqueous solution of cyclic dipeptide, final 1.0% (w/w) in reduced-sodium curry roux dispersion, 3 evaluators.
Setting [8] is: Additive amount paprika 0.5% (heat-treated paprika equivalent aqueous solution, final 0.5% (w/w)), reduced-sodium curry roux.
Setting [9] is: Additive amount paprika 0.5%, reduced-sodium curry roux.
Setting [10] is: heat-treated paprika equivalent aqueous solution of cyclic dipeptide, final 1.0% (w/w) in reduced-sodium curry roux dispersion.
Setting [11] is: heat-treated paprika equivalent aqueous solution of cyclic dipeptide, final 1.0% (w/w) in reduced-sodium curry roux dispersion, 3 evaluators.

On to cyclic (Gly-Gly) [Coriander ID 54], for which the “Top sharp saltiness Average” value in test [1] (setting [4]) turned out to be 2.2 points; in test [1] (setting [7]), 2.8 points. Further, the “Top sharp saltiness Evaluation” value in test [1] (setting [5]) was “B (“B” when it was 2.0 or higher and 2.5 or lower)”; in test [1] (setting [6]), “A (“A” when it was 2.6 or higher and 2.9 or lower)”. The “Middle fullness Average” value in test [2] (setting [5]) was 2.5 points; in test [2] (setting [7]), 2.7 points. Further, the “Middle fullness Evaluation” value in test [2] (setting [5]) is “B (“B” when it was 2.0 or higher and 2.5 or lower)”; in test [2] (setting [6]), “A (“A” when it was 2.6 or higher and 2.9 or lower)”. The “Bosting of last flavor Average” value in test [3] (setting [5]) amounted to 3.0 points; in test [3] (setting [7]) it was 2.3 points. Also, the “Bosting of last flavor Evaluation” value was “AA (“AA” when it was 3.0 or higher)” in test [3] (setting [5]); “B (“B” when it was 2.0 or higher and 2.5 or lower)” in test [3] (setting [6]).
cyclic (Gly-His) [Coriander ID 4]: the “Top sharp saltiness Average” value is given as 2.8 points in test [1] (setting [4]) and 2.3 points in test [1] (setting [7]). The “Top sharp saltiness Evaluation” value in test [1] (setting [5]) was “A (“A” when it was 2.6 or higher and 2.9 or lower)”; in test [1] (setting [6]), “B (“B” when it was 2.0 or higher and 2.5 or lower)”. Further, the “Middle fullness Average” value is given as 3.3 points in test [2] (setting [5]) and 2.7 points in test [2] (setting [7]). For the same substance, the “Middle fullness Evaluation” value was “AA (“AA” when it was 3.0 or higher)” in test [2] (setting [5]); “A (“A” when it was 2.6 or higher and 2.9 or lower)” in test [2] (setting [6]). Moreover, the “Bosting of last flavor Average” value stood at 3.5 points in test [3] (setting [5]) and 2.5 points in test [3] (setting [7]). The “Bosting of last flavor Evaluation” value in test [3] (setting [5]) was “AA (“AA” when it was 3.0 or higher)”; in test [3] (setting [6]) it was “B (“B” when it was 2.0 or higher and 2.5 or lower)”.
On to cyclic (Gly-Leu/Ile) [Coriander ID 25], for which the “Top sharp saltiness Average” value is on record as 3.0 points in test [1] (setting [8]) and 2.8 points in test [1] (setting [11]). Besides, the “Top sharp saltiness Evaluation” value in test [1] (setting [9]) is “AA (“AA” when it was 3.0 or higher)”; in test [1] (setting [10]) it was “A (“A” when it was 2.6 or higher and 2.9 or lower)”. Moreover, the “Middle fullness Average” value in test [2] (setting [9]) and in test [2] (setting [11]) was 2.7 points each time. Besides, the “Middle fullness Evaluation” value is “A (“A” when it was 2.6 or higher and 2.9 or lower)” in test [2] (setting [9]); “A (“A” when it was 2.6 or higher and 2.9 or lower)” in test [2] (setting [10]). In addition, the “Bosting of last flavor Average” value is on record as 3.0 points in test [3] (setting [9]) and 2.7 points in test [3] (setting [11]). Further, the “Bosting of last flavor Evaluation” value is “AA (“AA” when it was 3.0 or higher)” in test [3] (setting [9]); “A (“A” when it was 2.6 or higher and 2.9 or lower)” in test [3] (setting [10]).
With cyclic (Gly-Phe) [Coriander ID 28], the results for the “Top sharp saltiness Average” value in test [1] (setting [8]) and in test [1] (setting [11]) were 2.7 points and 2.3 points, respectively. Also, the “Top sharp saltiness Evaluation” value in test [1] (setting [9]) was “A (“A” when it was 2.6 or higher and 2.9 or lower)”; in test [1] (setting [10]) it was “B (“B” when it was 2.0 or higher and 2.5 or lower)”. For the same substance, the figures for the “Middle fullness Average” value in test [2] (setting [9]) and in test [2] (setting [11]) were 3.2 points and 2.5 points, respectively. Besides, the “Middle fullness Evaluation” value was “AA (“AA” when it was 3.0 or higher)” in test [2] (setting [9]); “B (“B” when it was 2.0 or higher and 2.5 or lower)” in test [2] (setting [10]). The entries for the “Bosting of last flavor Average” value in test [3] (setting [9]) and in test [3] (setting [11]) were 3.2 points and 2.5 points, respectively. Further, the “Bosting of last flavor Evaluation” value is “AA (“AA” when it was 3.0 or higher)” in test [3] (setting [9]); “B (“B” when it was 2.0 or higher and 2.5 or lower)” in test [3] (setting [10]).
For the substance cyclic (Gly-Ser) [Coriander ID 5], the “Top sharp saltiness Average” value in test [1] (setting [4]) is 1.7 points; in test [1] (setting [7]), 1.8 points. The “Top sharp saltiness Evaluation” value in test [1] (setting [5]) is “C (“C” when it was 1.1 or higher and 1.9 or lower)”; in test [1] (setting [6]), “C (“C” when it was 1.1 or higher and 1.9 or lower)”. For the same substance, the “Middle fullness Average” value in test [2] (setting [5]) turned out to be 2.0 points; in test [2] (setting [7]), 2.3 points. Also, the “Middle fullness Evaluation” value in test [2] (setting [5]) was “B (“B” when it was 2.0 or higher and 2.5 or lower)”; in test [2] (setting [6]), “B (“B” when it was 2.0 or higher and 2.5 or lower)”. Also, the “Bosting of last flavor Average” value in test [3] (setting [5]) is 2.2 points; in test [3] (setting [7]), 2.3 points. Further, the “Bosting of last flavor Evaluation” value was “B (“B” when it was 2.0 or higher and 2.5 or lower)” in test [3] (setting [5]); “B (“B” when it was 2.0 or higher and 2.5 or lower)” in test [3] (setting [6]).
With cyclic (Gly-Thr) [Coriander ID 60], the “Top sharp saltiness Average” value in test [1] (setting [4]) came to 3.3 points; in test [1] (setting [7]) it was 2.0 points. Also, the “Top sharp saltiness Evaluation” value in test [1] (setting [5]) is “AA (“AA” when it was 3.0 or higher)”; in test [1] (setting [6]), “B (“B” when it was 2.0 or higher and 2.5 or lower)”. The results for the “Middle fullness Average” value in test [2] (setting [5]) and in test [2] (setting [7]) were 3.2 points and 2.7 points, respectively. Also, the “Middle fullness Evaluation” value in test [2] (setting [5]) was “AA (“AA” when it was 3.0 or higher)”; in test [2] (setting [6]), “A (“A” when it was 2.6 or higher and 2.9 or lower)”. Moreover, the figures for the “Bosting of last flavor Average” value in test [3] (setting [5]) and in test [3] (setting [7]) were 3.2 points and 2.5 points, respectively. The “Bosting of last flavor Evaluation” value was “AA (“AA” when it was 3.0 or higher)” in test [3] (setting [5]); “B (“B” when it was 2.0 or higher and 2.5 or lower)” in test [3] (setting [6]).
On to cyclic (Gly-Tyr) [Coriander ID 44], for which the results for the “Top sharp saltiness Average” value in test [1] (setting [4]) and in test [1] (setting [7]) were 1.7 points and 2.2 points, respectively. In addition, the “Top sharp saltiness Evaluation” value in test [1] (setting [5]) is “C (“C” when it was 1.1 or higher and 1.9 or lower)”; in test [1] (setting [6]) it was “B (“B” when it was 2.0 or higher and 2.5 or lower)”. For the same substance, the “Middle fullness Average” value stood at 2.0 points in test [2] (setting [5]) and 2.2 points in test [2] (setting [7]). In addition, the “Middle fullness Evaluation” value in test [2] (setting [5]) was “B (“B” when it was 2.0 or higher and 2.5 or lower)”; in test [2] (setting [6]) it was “B (“B” when it was 2.0 or higher and 2.5 or lower)”. Moreover, the “Bosting of last flavor Average” value in test [3] (setting [5]) is 2.3 points; in test [3] (setting [7]), 2.8 points. Further, the “Bosting of last flavor Evaluation” value in test [3] (setting [5]) is “B (“B” when it was 2.0 or higher and 2.5 or lower)”; in test [3] (setting [6]) it was “A (“A” when it was 2.6 or higher and 2.9 or lower)”.
As to cyclic (Leu/Ile-His) [Coriander ID 52], the “Top sharp saltiness Average” value in test [1] (setting [4]) came out at 3.3 points; in test [1] (setting [7]), 2.3 points. For the same substance, the “Top sharp saltiness Evaluation” value was “AA (“AA” when it was 3.0 or higher)” in test [1] (setting [5]); “B (“B” when it was 2.0 or higher and 2.5 or lower)” in test [1] (setting [6]). The “Middle fullness Average” value in test [2] (setting [5]) came out at 3.2 points; in test [2] (setting [7]), 2.7 points. In addition, the “Middle fullness Evaluation” value was “AA (“AA” when it was 3.0 or higher)” in test [2] (setting [5]); “A (“A” when it was 2.6 or higher and 2.9 or lower)” in test [2] (setting [6]). Also, the “Bosting of last flavor Average” value is 2.8 points in test [3] (setting [5]) and 3.0 points in test [3] (setting [7]). Also, the “Bosting of last flavor Evaluation” value in test [3] (setting [5]) is “A (“A” when it was 2.6 or higher and 2.9 or lower)”; in test [3] (setting [6]), “AA (“AA” when it was 3.0 or higher)”.
